Measured values from patent publication US4900719A, “Nitrosothiols as hypotensive agents” (The Ohio State University, priority 1988, dated 1990).

Assays:
[1] = storage stability of solid GSNO (absorbance at 544 nm); format: physicochemical
Procedure: In air at 4° no change in the characteristic original absorbance at 544 nm was observed after 32 days. At room temperature, 75% of that absorption remained after the same period.

[2] = tested on: anesthetized dogs; test: mean arterial pressure during venous infusion in anesthetized dogs; format: in vivo, mongrel dogs
Procedure: (§1) Fifty milligrams of SNP (Nipride, Roche Laboratories) was reconstituted in 250 ml of 5% dextrose in water. A GSNO solution was diluted as 50 ug/ml in 5% dextrose in water. Seven mongrel dogs (18.1-31.8 kg) and seven cynomologus monkeys (Macaca fascicularis; 4.4-9.0 kg) were used in the study. The animals were given a pre-anesthetic (monkeys--Ketamine HCl, 10 mg/kg I.M.; dogs--0.2 mg/kg fentanyl and 1 mg/kg droperidol, Innovar Vet I.V.) and anesthetized with a mixture of α-chloralose (50 mg/kg) and urethane (500 mg/kg) given as an intravenous injection. The left femoral artery and vein were cannulated with heparinized saline-filled catheters. Arterial pressure was obtained from the arterial catheter using an electromedics MS-20 solid state pressure transducer and recorded on a Gould 2400 chart recorder. Randomized venous infusions of GSNO (n=7) and SNP (n=5) were made using Harvard apparatus compact infusion pump model 976. The infusion was maintained until a new steady state value for mean arterial pressure had been obtained for each infusion rate. The infusion rate was varied over the following ranges: GSNO 1.5-38.9 μg/kg/min (8 levels) and SNP 1.7-43.8 μg/kg/min (6 levels).
(§2) Intravenous administrations of GSNO or SNP in a wide range of doses decreased systematic arterial pressure in a dose related fashion. […]

[3] = tested on: anesthetized monkeys; test: mean arterial pressure during venous infusion in anesthetized monkeys; format: in vivo, cynomologus monkeys (Macaca fascicularis)
Procedure: as §1, §2

[4] = tested on: anesthetized dogs and monkeys; test: venous infusion in anesthetized dogs and monkeys, collected animal data (response time, onset/dissipation, effective dosage); format: in vivo
Procedure: as §1
Intravenous administrations of GSNO or SNP in a wide range of doses decreased systematic arterial pressure in a dose related fashion. FIGS. 1 and 2 show the dose-response curves for the dogs and monkeys, respectively, that occurred by SNP or GSNO administrations. In each figure (.) presents the data for SNP and (o) presents the data for GSNO. The blood pressure lowering effect of SNP and GSNO is greater in monkeys than in dogs. When 20 μg/kg/min of SNP or GSNO was administered, mean arterial pressure decreased 35-40 torr for dogs and 45 torr for monkeys. The noted response time for SNP was about 28.6±2.5 sec. and for GSNO about 33.4±6.0 sec.
From the collected animal data, it can be noted that in general the decrease in blood pressure is dosage dependent.

[5] = tested on: anesthetized dogs; test: arterial blood pressure after intravenous injection in anesthetized dogs (Examples 2 and 3); format: in vivo; details: intravenous injection in dextrose
Procedure: A GSNO solution was diluted as 50 ug/ml in 5% dextrose in water. […] The animals were given a pre-anesthetic (monkeys--Ketamine HCl, 10 mg/kg I.M.; dogs--0.2 mg/kg fentanyl and 1 mg/kg droperidol, Innovar Vet I.V.) and anesthetized with a mixture of α-chloralose (50 mg/kg) and urethane (500 mg/kg) given as an intravenous injection. The left femoral artery and vein were cannulated with heparinized saline-filled catheters. Arterial pressure was obtained from the arterial catheter using an electromedics MS-20 solid state pressure transducer and recorded on a Gould 2400 chart recorder. […] The infusion was maintained until a new steady state value for mean arterial pressure had been obtained for each infusion rate.
By following in general the procedure described for GSNO in Example 1, animal experiments are performed on a plurality of anesthetized dogs with each intravenous injection of S-Nitrosocaptopril in dextrose as well as the arterial blood pressure of the dogs being recorded.
The specific injections as well as the arterial blood pressure of the dogs are recorded.

[6] = stability of other nitrosothiols (qualitative statement); format: physicochemical

SMILES | change in characteristic original absorbance at 544 nm ([1]; in air at 4°, after 32 days) | absorption at 544 nm remaining ([1]; room temperature, after 32 days) [%] | effect of exclusion of light and air on stability ([1]; storage for more than 30 days) | blood pressure lowering (in words) ([2]; anesthetized dogs, venous infusion, to about the same extent as SNP) | decrease in mean arterial pressure ([2]; dogs, 20 μg/kg/min venous infusion) | blood pressure lowering (in words) ([3]; anesthetized monkeys, venous infusion, to about the same extent as SNP) | decrease in mean arterial pressure ([3]; monkeys, 20 μg/kg/min venous infusion) [torr] | onset and dissipation of effect ([4]; anesthetized dogs and monkeys, compared with SNP) | effective dosage to significantly lower arterial pressure ([4]; infusion administration, from the collected animal data) | response time ([4]; venous infusion, species not stated) | lowering of arterial blood pressure (in words) [5] | stability (in words) [6]
N[C@@H](CCC(=O)N[C@@H](CSN=O)C(=O)NCC(=O)O)C(=O)O [GSNO, S-nitrosoglutathione] | no change | 75 | virtually no noticeable effect | significantly lowered blood pressure | 35-40 torr | significantly lowered blood pressure | 45 | essentially the same as obtained with SNP | at least 7 μg/1 kg animal weight/minute | about 33.4±6.0 sec. | – | –
C[C@H](CSN=O)C(=O)N1CCC[C@H]1C(=O)O [S-Nitrosocaptopril, D-(S-nitroso) 3-mercaptomethylpropionyl-L-proline] | – | – | – | – | – | – | – | – | – | – | Significant lowering of arterial blood pressure | quite stable
